Patent publication US20250304563A1, “ACTIVATORS OF EFFECTOR T CELLS” (Orum Therapeutics, Inc., priority 2022, published 2025)

Experiments:
Human primary T cells [1] = assay: T cell activation: secreted IFN-y; format: cell-based; details: 48 hours, fold over background normalized to Compound 141A; for IFN-y 1 nM: 1 nM compound; for IFN-y 10 nM: 10 nM compound; for IFN-y 100 nM: 100 nM compound
Outline: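 Values are binned ranges (A–D) of fold increase over anti-CD3/CD28 background, normalized to a reference compound, for IFN-γ in supernatants measured by bead array. Pan-T cells from donor PBMC or LeukoPaks were stimulated on anti-CD3-coated wells (10 μg/mL coating) in serum-free medium with compound for 48 h at 37 °C.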

Human primary T cells [2] = assay: T cell activation: CD69 surface expression by flow cytometry; format: cell-based; details: fold over anti-CD3 stimulated background normalized to Compound 141A; for CD69 1 nM: 1 nM compound; for CD69 10 nM: 10 nM compound; for CD69 100 nM: 100 nM compound
Outline: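 Read-out is flow-cytometric CD69 surface staining, expressed as fold increase over anti-CD3-stimulated background and normalized to Compound 141A. Human pan T cells from PBMC or LeukoPaks were plated on OKT3-coated wells in serum-free XVivo-15. Compound dilutions were added for 48 h at 37° C, 5% CO2.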

Human primary T cells [3] = assay: T cell activation: secreted IL-2; format: cell-based; details: 48 hours, fold over background normalized to Compound 141A; for IL-2 1 nM: 1 nM compound; for IL-2 10 nM: 10 nM compound; for IL-2 100 nM: 100 nM compound
Outline: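 IL-2 values are fold over anti-CD3/CD28 background, normalized to a reference compound and sorted into ranges. They come from supernatants of human pan-T cells captured on anti-CD3-coated plates and exposed 48 h, 37° C., to duplicate compound dilutions, measured with cytometric beads.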

[4] = target: Cbl-b (36-427 aa truncated form, N-terminus Avi-tag) (Homo sapiens (Human), UniProt Q13191); assay: Cbl-b binding: TR-FRET displacement of BODIPY-FL probe
Outline: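 IC50 from loss of terbium–BODIPY-FL TR-FRET signal as compounds compete off a fluorescent Cbl-b inhibitor probe (1 uM) for 1 h at RT. Protein: N-Avi-tagged human Cbl-b 36-427 on streptavidin-terbium, 20 mM HEPES pH 7.5 buffer.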

Cbl-b (36-427 aa truncated form, N-terminus Avi-tag), sequence (Q13191 36-427): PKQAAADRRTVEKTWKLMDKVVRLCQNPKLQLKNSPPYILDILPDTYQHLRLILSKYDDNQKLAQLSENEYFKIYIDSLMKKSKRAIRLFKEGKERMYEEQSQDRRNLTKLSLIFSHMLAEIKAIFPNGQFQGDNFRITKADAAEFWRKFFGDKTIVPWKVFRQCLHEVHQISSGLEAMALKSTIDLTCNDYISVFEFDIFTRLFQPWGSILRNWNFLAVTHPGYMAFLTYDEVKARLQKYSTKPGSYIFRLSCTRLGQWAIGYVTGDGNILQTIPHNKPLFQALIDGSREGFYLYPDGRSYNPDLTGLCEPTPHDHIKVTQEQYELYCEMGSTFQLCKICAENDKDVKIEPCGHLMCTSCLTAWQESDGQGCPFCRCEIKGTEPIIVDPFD

IC50 [4] [nM] | SMILES | IFN-y 1 nM (Human primary T cells [1]) | IFN-y 10 nM (Human primary T cells [1]) | IFN-y 100 nM (Human primary T cells [1]) | CD69 1 nM (Human primary T cells [2]) | CD69 10 nM (Human primary T cells [2]) | CD69 100 nM (Human primary T cells [2]) | IL-2 1 nM (Human primary T cells [3]) | IL-2 10 nM (Human primary T cells [3]) | IL-2 100 nM (Human primary T cells [3])
1 to 5 | CSc1cc(C(CO)N2CCC[C@H](C)C2)cc2c1CN(c1cccc([C@]3(c4nncn4C)C[C@H](C)C3)c1)C2=O (stereo partly drawn) [Compound 170, 6-{2-hydroxy-1-[(3S)-3-methylpiperidin-1-yl]ethyl}-4-(methylsulfanyl)-2-{3-[(1r,3s)-3-methyl-1-(4-methyl-1,2,4-triazol-3-yl)cyclobutyl]phenyl}-3H-isoindol-1-one] | B (values between 0.31 and 1.00: range “B;”) | B (values between 0.31 and 1.00: range “B;”) | B (values between 0.31 and 1.00: range “B;”) | C (values between 0.30 and 0.60: range “C”) | C (values between 0.30 and 0.60: range “C”) | A (values between 0.81 and 1.10: range “A”) | C (values between 0.10 and 0.30: range “C”) | C (values between 0.10 and 0.30: range “C”) | B (values between 0.31 and 0.79: range “B”)
5.01 to 20 | C#CCCS(=O)(=O)N1CCN(c2cc(C3(Cc4nncn4C)COC3)cc(N3Cc4c(cc(CN5CCC[C@H](C)C5)cc4C(F)(F)F)C3=O)n2)CC1 [Compound 134, (S)-2-(6-(4-(but-3-yn-1-ylsulfonyl)piperazin-1-yl)-4-(3-((4-methyl-4H-1,2,4-triazol-3-yl)methyl)oxetan-3-yl)pyridin-2-yl)-6-((3-methylpiperidin-1-yl)methyl)-4-(trifluoromethyl)isoindolin-1-one] | B (values between 0.31 and 1.00: range “B;”) | B (values between 0.31 and 1.00: range “B;”) | B (values between 0.31 and 1.00: range “B;”) |  | B (values between 0.61 and 0.80: range “B;”) | A (values between 0.81 and 1.10: range “A”) | C (values between 0.10 and 0.30: range “C”) | B (values between 0.31 and 0.79: range “B”) | B (values between 0.31 and 0.79: range “B”)

The next lines start with the compound.

SMILES | IC50 [4] [nM] | IFN-y 1 nM (Human primary T cells [1]) | IFN-y 10 nM (Human primary T cells [1]) | IFN-y 100 nM (Human primary T cells [1]) | CD69 1 nM (Human primary T cells [2]) | CD69 10 nM (Human primary T cells [2]) | CD69 100 nM (Human primary T cells [2]) | IL-2 1 nM (Human primary T cells [3]) | IL-2 10 nM (Human primary T cells [3]) | IL-2 100 nM (Human primary T cells [3])
CSc1cc(CN2CCC[C@H](C)C2)cc2c1CN(c1cc(C3(Cc4nncn4C)COC3)cc(NCCC#N)n1)C2=O.O=C(O)C(F)(F)F [Compound 154, 3-[(4-{3-[(4-methyl-1,2,4-triazol-3-yl)methyl]oxetan-3-yl}-6-(6-{[(3S)-3-methylpiperidin-1-yl]methyl}-4-(methylsulfanyl)-1-oxo-3H-isoindol-2-yl)pyridin-2-yl)amino]propanenitrile; trifluoroacetic acid] | 1 to 5 | B (values between 0.31 and 1.00: range “B;”) | B (values between 0.31 and 1.00: range “B;”) | B (values between 0.31 and 1.00: range “B;”) | C (values between 0.30 and 0.60: range “C”) | C (values between 0.30 and 0.60: range “C”) | B (values between 0.61 and 0.80: range “B;”) | D (values between 0.01 and 0.09: range “D.”) | D (values between 0.01 and 0.09: range “D.”) | C (values between 0.10 and 0.30: range “C”)
CCSc1cc(C2(c3nncn3C)CC(C)C2)cc(N2Cc3c(cc(CN4CCC[C@H](C)C4)cc3C(F)(F)F)C2=O)n1 (stereo partly drawn) [Compound 112, 2-[6-(ethylsulfanyl)-4-[(1r,3s)-3-methyl-1-(4-methyl-1,2,4-triazol-3-yl)cyclobutyl]pyridin-2-yl]-6-{[(3S)-3-methylpiperidin-1-yl]methyl}-4-(trifluoromethyl)-3H-isoindol-1-one] | 20 to 100 | C (values between 0.10 and 0.30: range “C”) | B (values between 0.31 and 1.00: range “B;”) | B (values between 0.31 and 1.00: range “B;”) |  | C (values between 0.30 and 0.60: range “C”) | B (values between 0.61 and 0.80: range “B;”) | C (values between 0.10 and 0.30: range “C”) | C (values between 0.10 and 0.30: range “C”) | B (values between 0.31 and 0.79: range “B”)
C[C@H]1CCCN(Cc2cc3c(c(C(F)(F)F)c2)CN(c2cc(C4(Cc5nncn5C)COC4)cc(NCCC#N)n2)C3=O)C1.O=CO [Compound 110, 3-[(4-{3-[(4-methyl-1,2,4-triazol-3-yl)methyl]oxetan-3-yl}-6-(6-{[(3S)-3-methylpiperidin-1-yl]methyl}-1-oxo-4-(trifluoromethyl)-3H-isoindol-2-yl)pyridin-2-yl)amino]propanenitrile; formic acid] | 1 to 5 | B (values between 0.31 and 1.00: range “B;”) | B (values between 0.31 and 1.00: range “B;”) | B (values between 0.31 and 1.00: range “B;”) |  | B (values between 0.61 and 0.80: range “B;”) | A (values between 0.81 and 1.10: range “A”) | C (values between 0.10 and 0.30: range “C”) | B (values between 0.31 and 0.79: range “B”) | B (values between 0.31 and 0.79: range “B”)
C=CC(=O)N1CCN(c2cc(C3(Cc4nncn4C)COC3)cc(N3Cc4c(cc(CN5CCC[C@H](C)C5)cc4C(F)(F)F)C3=O)n2)CC1 [Compound 121, (S)-2-(6-(4-acryloylpiperazin-1-yl)-4-(3-((4-methyl-4H-1,2,4-triazol-3-yl)methyl)oxetan-3-yl)pyridin-2-yl)-6-((3-methylpiperidin-1-yl)methyl)-4-(trifluoromethyl)isoindolin-1-one] | 20 to 100 | C (values between 0.10 and 0.30: range “C”) | C (values between 0.10 and 0.30: range “C”) | B (values between 0.31 and 1.00: range “B;”) |  | C (values between 0.30 and 0.60: range “C”) | A (values between 0.81 and 1.10: range “A”) | C (values between 0.10 and 0.30: range “C”) | C (values between 0.10 and 0.30: range “C”) | B (values between 0.31 and 0.79: range “B”)
CCNc1cc(C2(Cc3nncn3C)COC2)cc(N2Cc3c(cc(CN4CCC(CSC)CC4)cc3C(F)(F)F)C2=O)n1 [Compound 106, 2-[6-(ethylamino)-4-{3-[(4-methyl-1,2,4-triazol-3-yl)methyl]oxetan-3-yl}pyridin-2-yl]-6-({4-[(methylsulfanyl)methyl]piperidin-1-yl}methyl)-4-(trifluoromethyl)-3H-isoindol-1-one] | 100 to 1000 | C (values between 0.10 and 0.30: range “C”) | C (values between 0.10 and 0.30: range “C”) | B (values between 0.31 and 1.00: range “B;”) |  | C (values between 0.30 and 0.60: range “C”) | B (values between 0.61 and 0.80: range “B;”) | C (values between 0.10 and 0.30: range “C”) | C (values between 0.10 and 0.30: range “C”) | B (values between 0.31 and 0.79: range “B”)
